One may read the logP as a log measure of how a compound divides between an organic and an aqueous phase. A low value points to a more hydrophilic compound. As for `COC(=O)Nc1ccccc1F`, the logP came out at 1.66.
Regarding `COC(=O)Nc1cccc(C)c1`, the logP came out at 2.29.
Regarding `CCOc1ccc(NC(=O)OCC(C)C)cc1OCC`, the logP amounted to 3.36.
Take `CCOC(=O)Nc1ccc(OCC)c(OCC)c1`: the logP came to 2.54.
On to `COC(=O)Nc1ccccc1C(F)(F)F`, for which the log partition coefficient (logP) was 2.09.
On to `COC(=O)Nc1cccc(Br)c1`, for which the log partition coefficient (logP) is 2.75.
With `COC(=O)Nc1cccc(C(F)(F)F)c1`, the logP amounted to 2.74. The logP values of the last two molecules are within 0.2 log units of each other.
Consider `CCOc1ccc(NC(=O)OCCOC)cc1OCC`, for which the lipophilicity (logP) amounted to 2.27.
On to `COC(=O)Nc1ccc(C)cc1`, for which the log partition coefficient (logP) stood at 2.29. This logP and that of the molecule before are within 0.2 log units of each other.
As for `COC(=O)Nc1ccc(Cl)cc1`, the logP worked out at 2.55.
As to `CCOc1ccc(NC(=O)OCCC#N)cc1OCC`, the lipophilicity (logP) amounted to 2.07.
The molecule `COC(=O)Nc1ccccc1Cl` yielded a lipophilicity (logP) of 2.16.
In turn, `COC(=O)Nc1ccccc1Br` returned a log partition coefficient (logP) of 2.3.
With `CCOc1ccc(NC(=O)OC(C)C)cc1OCC`, the log partition coefficient (logP) was 2.91.
`C#CCOC(=O)Nc1ccc(OCC)c(OCC)c1` yielded a logP of 2.68.
For `CCOc1cccc(NC(=O)OC)c1`, the log partition coefficient (logP) is 2.31.
For `CCCOC(=O)Nc1ccc(OCC)c(OCC)c1`, the logP is 2.93.
As to `COC(=O)Nc1ccccc1OC`, the logP was determined as 1.84.
For `CCCCOC(=O)Nc1ccc(OCC)c(OCC)c1`, the lipophilicity (logP) came out at 3.46.
For the molecule `COC(=O)Nc1ccccc1I`, the lipophilicity (logP) worked out at 2.44.
In the case of `CCOc1ccccc1NC(=O)OC` it was 2.43.
As for `COC(=O)Nc1ccc(C#N)cc1`, the log partition coefficient (logP) worked out at 1.82.
Turning to `COC(=O)Nc1cccc(C#N)c1`, the logP is 1.77. The logP values of the last two molecules are within 0.2 log units of each other.
Consider `CCOc1ccc(NC(=O)OC(CBr)CBr)cc1OCC`, for which the logP was 3.5.
In turn, `COC(=O)Nc1ccccc1C` displayed a logP of 1.69.
With `CCOc1ccc(NC(=O)OCc2ccccc2)cc1OCC`, the logP was determined as 3.29.
Turning to `CCc1ccc(NC(=O)OC)cc1`, the logP was 2.72.
In the case of `CCCCc1ccc(NC(=O)OC)cc1`, the log partition coefficient (logP) was determined as 3.69.
In the case of `COC(=O)Nc1ccc(OC)cc1` it was 1.73.
As for `COC(=O)Nc1ccc([N+](=O)[O-])cc1`, the logP worked out at 2.12.
In the case of `CCOc1ccc(NC(=O)OC)cc1OCC` it was 2.1; in that of `CCc1cccc(NC(=O)OC)c1`, 2.74; in that of `COC(=O)Nc1cccc(OC)c1`, 1.92.
As for `COC(=O)Nc1cccc(C(C)=O)c1`, the lipophilicity (logP) was determined as 1.63.
For the molecule `COC(=O)Nc1cccc(I)c1`, the logP is 3.03.
As for `COC(=O)Nc1ccccc1[N+](=O)[O-]`, the log partition coefficient (logP) stood at 2.1.
`C=CCOC(=O)Nc1ccc(OCC)c(OCC)c1` displayed a logP of 2.75.
The molecule `COC(=O)Nc1ccc(F)cc1` showed a lipophilicity (logP) of 1.95.
`COC(=O)Nc1cccc([N+](=O)[O-])c1` yielded a log partition coefficient (logP) of 2.
To `COC(=O)Nc1ccccc1` belongs 1.75; to `CCOc1ccc(NC(=O)OC)cc1`, 2.15.

The values above are taken from the OPERA property sets (Mansouri et al. 2018).
